Reference: patent publication US20030134859A1 (SANKYO COMPANY, LIMITED, priority 2000, published 2003)
pEC50, pIC50: −log10 of the molar value. Like-named read-outs stand apart in the source and are kept apart here. Blank lines part the entries; values can stand above or below the molecule they belong to.

Tests used:
human PPAR γ 2 [1] = target: T1, human PPAR γ 2 (Homo sapiens, UniProt P37231); experiment: PPAR γ transcriptional activity, luciferase reporter, test compound alone; format: cell-based; details: concentration indicating Emax/2, MG63 cells transfected with pSG5-hPPARg and pGV-P2-PPRE, 24 hr
T1 construct: expressed in transfected cells; host or cells: human osteosarcoma MG63, transiently co-transfected with pSG5-hPPARg and the reporter pGV-P2-PPRE
T1 sequence (P37231 1-505): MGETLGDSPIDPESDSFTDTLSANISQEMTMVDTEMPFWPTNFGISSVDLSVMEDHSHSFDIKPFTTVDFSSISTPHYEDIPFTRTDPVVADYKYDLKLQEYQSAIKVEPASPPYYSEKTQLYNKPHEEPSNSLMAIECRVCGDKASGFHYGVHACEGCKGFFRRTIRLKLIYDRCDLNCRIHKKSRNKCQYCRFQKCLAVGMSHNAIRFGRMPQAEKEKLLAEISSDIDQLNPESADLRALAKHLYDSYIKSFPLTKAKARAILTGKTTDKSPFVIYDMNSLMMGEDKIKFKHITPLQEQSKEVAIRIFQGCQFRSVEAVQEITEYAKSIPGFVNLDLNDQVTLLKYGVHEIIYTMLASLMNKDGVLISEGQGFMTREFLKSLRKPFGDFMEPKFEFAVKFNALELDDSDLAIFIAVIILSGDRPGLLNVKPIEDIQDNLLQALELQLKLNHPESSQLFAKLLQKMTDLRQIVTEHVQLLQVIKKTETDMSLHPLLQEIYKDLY
Description: The primers of the polymerase chain reaction (hereinafter “PCR”) were designed according to the gene sequence of human PPAR γ 2 (GenBANK accession No. D83233). In order to insert the genes into the BamHI site of the plasmid pSG5 ([…] CLONING SYSTEMS), Bgl II sites were added upstream and downstream of the genes encoding human PPAR γ 2 protein. For this, 2 kinds of polynucleotides shown in the sequence numbers 1 and 2 in the sequence table described below (hereinafter “S1” and “AS1”, respectively) were used as PCR primers.
(§1) In order to determine transcriptional activity via PPAR γ, 2 kinds of polynucleotides represented in sequence numbers 3 and 4 in the sequence table described below (hereinafter “S2” and “AS2”, respectively) were used for construction of the reporter plasmid having PPAR responsive element. The DNA fragment inserted was designed based on the gene sequence in the promoter region of rat acylCo-A oxidase (J. D. Tugwood, EMBO J., 11 (2), pp433-439 (1992)). For insertion of the DNA fragment into the reporter plasmid pGV-P2 (TOYO INK MFG CO., LTD), a NheI site and an XhoI site were added to the S2 and AS2, respectively.
(§2) Using cDNA library (Clontech) derived from human adipose tissue as a template, DNA oligomers S1 and AS1 that were synthesized in the procedure 1 as primers and Ex-Taq™ (TAKARA BIO INC.) as a thermostable DNA polymerase-PCR was carried out. As a result of the PCR, the c.a. 1500 bps DNA fragments were amplified. Each cycle consisted of incubation at 94° C. for 1 min for denaturation of the template, then at 55° C. for 30 sec for annealing of DNA oligomers the PCR primer, and then at 72° C. for 30 sec for extension of the chain. The obtained DNA fragments with approximately 1500 base pairs were digested at the Bgl II sites and were inserted into BamHI sites of pSG5. Thus a human PPAR γ expression plasmid named pSG5-hPPAR g was obtained. The nucleotide sequence of the inserted DNA fragment was confirmed to be identical sequence to the human PPAR γ 2 reported by the dideoxy method.
(§3) Vector pGV-P2 digestion products was prepared by digestion using the restriction enzymes, NheI and XhoI, and purified by 1.0% agarose-gel electrophoresis. The DNA oligomers, S2 and AS2 obtained in Procedure 2, were mixed together and were incubated in a hot bath at 94° C. for 1 min. After the annealing was partially broken, they were further incubated at 25° C. for 1 hr. Thus double-stranded DNA with annealing of S2 and AS2 was formed. Then, the terminus of the double-stranded DNA with annealing of S2 and AS2 was phosphorylated with DNA polynucleotide kinase (TOYOBO CO., LTD). After that, it was ligated to the pGV-P2 digestion products which were prepared previously using the NheI site and XhoI site. Thus the reporter plasmid pGV-P2-PPRE was obtained.
(§4) Using the plasmid obtained by the procedures 3 and 4, transformation of Escherichia coli HB-101 strain was carried out by conventional methods. HB-101 strain having the plasmid was incubated in L-broth medium (containing 10 g of trypton (Difco), 5 g of yeast extract (Difco), 5 g of sodium chloride in 1 L of aqueous solution) containing 100 μg/ml of ampicillin at 37° C. for 17 hrs. Then, each plasmid was purified by the alkaline-SDS method and employed for the gene transfection to mammalian cells. After mixing the pSG5-hPPARg, PGV-P2-PPRE and LipofectAMINE reagent (GIBCO BRL), the human osteosarcoma MG63 was transiently transfected. Then the cells were recovered. The recovered cells were plated on a 96-well plate so as to be 30,000 cells/well and cultured in a CO2 incubator (NAPCO) at 37° C. for 24 hr under the condition of 5% CO2, 95%-RH.
Various concentrations of the test compound alone were added to culturing medium of the cells prepared in the Procedure 5. After 24 hr of culturing, LT2.0 (TOYO INK MFG CO., LTD), a luciferase substrate, was added to the medium free culture plate. […]

[2] = system: human colon cancer cells COL-2-JCK; experiment: Inhibition of colony forming activity in human colon cancer cells; format: cell-based; details: Homo sapiens, 240 h; 1 μM test compound; 10 days; sum of colony areas vs control; read-out: Inhibition Rate (%) against the colony forming activity
Description: For the medium to culture the human colon cancer cells, D-MEM/F-12 medium containing inactivated bovine fetal serum at a concentration of 10% (GIBCO) was used. The human colon cancer cells COL-2-JCK (purchased from Institute for Experimental Animals) grown in mass formation in a plastic dish for the cell culture with an inner diameter of 100 mm were stripped off from the dish by using EDTA (ethylenediaminetetraacetic acid) and 0.05% trypsin solution. Then, a cell dilution solution was prepared at a concentration of 100 cells/mL solution which was diluted with the medium (D-MEM/F-12).
Three (3) mL of the cell solution were inoculated in each well of a 6-well plastic plate (300 cells/well). The test compound that was dissolved in DMSO solution so as to be a final concentration of 1 μM of the test compound and that of DMSO solution of 0.1% was added to each well. DMSO solution alone was added into the well for the control so as to be a final concentration of 0.1%.
The cells in each well were cultured for 10 days at 37° C. in the presence of 5% CO2. After the culturing was finalised, each well was washed once with Dulbecco-phosphate-buffer-saline solution (bivalent anion). Then, 1.5 ml of neutral buffered formalin solution containing 0.02% crystal violet was added to each well and the plate was kept stationary for 5 min for fixation and staining the cells. After fixation and staining, the cells were washed with water and were air-dried. Then the sum of the colony area (mm^2) of the stained cancer cells was calculated by using an image analyzer PCA-11 (SystemScience). From the calculated values, the inhibition rate (%) of the compound against the colony forming activity was obtained based on the following equation.
Inhibition Rate (%) against the colony forming activity=(1−A/B)×100
A: Sum of Colony Areas in the Group Treated with 1 μM of the Test Compound
B: Sum of Colony Areas in the Control Group

human PPAR γ 2 [3] = target: T1, human PPAR γ 2; experiment: Inhibitory activity against PPAR γ transcription in the presence of agonist compound A, luciferase reporter; format: cell-based; details: in the presence of 10 nM compound A (agonist); MG63 cells transfected with pSG5-hPPARg and pGV-P2-PPRE; 24 hr
From the text: The primers of the polymerase chain reaction (hereinafter “PCR”) were designed according to the gene sequence of human PPAR γ 2 (GenBANK accession No. D83233). […] For this, 2 kinds of polynucleotides shown in the sequence numbers 1 and 2 in the sequence table described below (hereinafter “S1” and “AS1”, respectively) were used as PCR primers.
as §1
as §2, with “As a result of the PCR, the c.a. 1500 bps DNA fragments were amplified.” left out, “obtained.” for “obtained. The nucleotide sequence of the inserted DNA fragment was confirmed to be identical sequence to the human PPAR γ 2 reported by the dideoxy method.”
as §3, §4
Ten (10) nM of the following compound A (although compound A is described here as a representative compound, the compound is not limited to compound A, if the compound exerts a PPAR r agonistic activity) and various concentrations of the test compound were added to culturing medium of the cells prepared in the Procedure 5.

Rat white adipocytes = experiment: Stimulation of differentiation of the adipocytes (Oil Red O); format: cell-based; details: Rattus norvegicus, Adipocyte, 120 h, 100 nM test compound; 5 days; Oil Red O ABS550; control = 100%, blank = 0%; Table 7; read-out: Rate of Differentiation (%)
In short: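 Oil Red O lipid staining, absorbance 550 nm after DMSO extraction, quantified differentiation of rat white adipocytes exposed 5 days to compound (final 100 nM, 0.1% DMSO) in differentiation medium. Percent differentiation normalised between cell-free blank (0%) and DMSO control (100%).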

[4] = system: Mouse preadipocyte strain 3T3-L1; experiment: Inhibition of differentiation as an indication of acetic acid uptake; format: cell-based; details: Mus musculus, 3T3-L1, 0.1 μM test substance, control (0.01% dimethylsulfoxide) = 100%, read-out: Rate of Uptake (%) of [2-14C] acetic acid
In short: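 Differentiation is indexed by 1 hr [2-14C]acetic acid incorporation, measured by scintillation counting and given as uptake relative to 0.01% DMSO control (100%). Mouse 3T3-L1 preadipocytes, pre-grown 10 days, received 0.1 μM test substance throughout a 4-day insulin/IBMX/dexamethasone induction, followed by 2 days' maintenance culture.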

Balb/c mice = experiment: Prevention of concanavalin A liver injury; format: in vivo, mouse; details: Mus musculus, po, 24 h, 10 mg/mL suspension at 10 mL/kg, 30 min prior to Con A, plasma 24 hr after Con A
Description: Five (5) Balb/c mice (female, 6-8 weeks old) per group were used. Liver injury was elicited in the mouse by injection of concanavalin A (Con A) dissolved in saline (2.0 mg/mL) into the tail vein at a volume of 10 mL/kg of the solution (Hepatology, 21, 190-198 (1995)).
The test compounds were suspended in distilled water containing 0.5% CMC, at a concentration of 10 mg/mL. This suspended solution was orally administered to the mouse at a volume of 10 mL/kg, 30 min prior to injection of Con A (group A).
Apart from this group, distilled water containing 0.5% CMC powder, instead of the test compound, was orally administered in the second group of mice (group B). In the 3rd group, nothing was given to the mice (group C).
Twenty four (24) hr after the injection of Con A, blood was collected from the abdominal aorta of the mice and the plasma was isolated while mixing with heparin. Activities of glutamic acid oxaloacetic acid transaminase (AST) and glutamic acid pyruvic acid transaminase (ALT) in the plasma were determined according to the methods described by Nagakawa et al. (J. Pharmacol. Exp. Ther., 264, 496-500 (1993)). From the values obtained inhibitory rates of the test compound against AST and ALT levels which had been increased by injection of Con A, were obtained based on the following equation.
Inhibitory Rate(%)={1−[(A−C)/(B−C)]}×100
A: The average level of AST or ALT in the group A
B: The average level of AST or ALT in the group B
C: The average level of AST or ALT in the group C

[5] = read-out: Preventing rate against liver injury, ALT (%)
[6] = read-out: Preventing rate against liver injury, AST (%)

pEC50 (human PPAR γ 2 [1]): 6.44 | pIC50 (human PPAR γ 2 [3]): 6.10
SMILES: Cc1nc(NS(=O)(=O)c2ccc(NC(=O)c3cc([N+](=O)[O-])ccc3Cl)cc2)oc1C [Example 97, N-[4-(4,5-Dimethyloxazol-2-yl)aminosulfonyl]phenyl-(2-chloro-5-nitrophenyl)carboxamide]
inhibition at 1 µM [2]: 3%

SMILES: CS(=O)(=O)Nc1ccc(NC(=O)c2cc([N+](=O)[O-])ccc2Cl)cc1 [Example 136, N-(4-Methanesulfonylaminophenyl)-(2-chloro-5-nitrophenyl)carboxamide]
activity at 0.1 µM (Rat white adipocytes): 129% | activity at 0.1 µM [4]: 88.9% | inhibition in vivo at 10000 µg/mL, 100 mg/kg (Balb/c mice; [5]): 13.1% | inhibition in vivo at 10000 µg/mL, 100 mg/kg (Balb/c mice; [6]): 12%

SMILES: Cc1ccc(NS(=O)(=O)c2cccc(NC(=O)c3cc([N+](=O)[O-])ccc3Cl)c2)cc1 [Example 142, N-[3-(4-Tolylaminosulfonyl)phenyl]-(2-chloro-5-nitrophenyl)carboxamide]
activity at 0.1 µM (Rat white adipocytes): 112% | activity at 0.1 µM [4]: 74.4% | inhibition in vivo at 10000 µg/mL, 100 mg/kg (Balb/c mice; [5]): 54% | inhibition in vivo at 10000 µg/mL, 100 mg/kg (Balb/c mice; [6]): 63%
